Where “and” joins values, the source holds several entries; their conditions need not be identical. Equal values may be shown once. Read-outs that look alike come from different tables or passages of the source.
Columns and labels:
YFV [1] = conditions: rhesus monkey, in vivo; cited from earlier work
DENV type 1 = conditions: rhesus monkeys infected with DENV type 1, therapeutic and prophylactic protocols; cited from earlier work
Poliovirus 1 (Sb-1) = type: cell-based; conditions: read-out: concentration required to reduce the plaque number by 50%, Sb-1
[2] = test system: Bovine viral diharrea virus (BVDV); type: cell-based; conditions: read-out: concentration required to achieve 50% protection from BVDV induced cytopathogenicity
YFV [3] = type: cell-based, Yellow fever virus; conditions: read-out: EC50, anti-YFV, virus yield reduction assay
[4] = test system: VERO-76 (Monkey normal kidney) monolayers
Modoc (MODV) strain M544 = type: cell-based, Modoc virus; conditions: read-out: EC50, anti-MODV, virus yield reduction assay
[5] = test system: Respiratory Syncytial Virus (RSV); type: cell-based; conditions: read-out: concentration required to reduce the plaque number by 50%, RSV
Vaccinia Virus (VV) = type: cell-based; conditions: read-out: concentration required to reduce the plaque number by 50%, VV
[6] = test system: Vesicular Stomatitis Virus (VSV); type: cell-based; conditions: read-out: concentration required to reduce the plaque number by 50%, VSV
JEV strain SA-14 [7] = type: cell-based, Japanese encephalitis virus; conditions: read-out: EC50, JEV, virus yield assay
[8] = test system: Dengue virus (DENV) serotype 2 New Guinea C (NGC) strain; type: cell-based; conditions: read-out: EC50, anti-DENV, virus yield reduction assay
Herpesvirus 1 (HSV-1) = type: cell-based; conditions: read-out: concentration required to reduce the plaque number by 50%, HSV-1
[9] = test system: MDBK (Bovine normal kidney) cells
TBEV strain Oshima 5-10 [10] = type: cell-based, Tick-borne encephalitis virus
[11] = test system: Coxsackievirus B2 (CVB-2); type: cell-based; conditions: read-out: concentration required to reduce the plaque number by 50%, CVB-2
JEV strain SA-14 [12] = type: cell-based, Japanese encephalitis virus
[13] = test system: BHK cells (Hamster normal kidney fibroblast)
TBEV strain Oshima 5-10 [14] = type: cell-based, Tick-borne encephalitis virus; conditions: read-out: EC50, TBEV, virus yield assay
[15] = previous studies, Guzzo C A et al. 2002; cited from earlier work
[16] = test system: Dengue subgenomic replicons; experiment: Anti-DENV activity in BHK cells containing Dengue subgenomic replicons; type: cell-based, Dengue virus
Reovirus-1 (Reo-1) = type: cell-based; conditions: read-out: concentration required to achieve 50% protection from Reovirus-1 induced cytopathogenicity
[17] = test system: Yellow fever virus (YFV) 17D vaccine strain; type: cell-based; conditions: read-out: EC50, anti-YFV, CPE reduction assay

For `NC(=O)c1ncn([C@@H]2O[C@H](CO)[C@@H](O)[C@H]2O)n1` [ribavirin, 1-beta-D-ribofuranosyl-1,2,4-triazole-3-carboxamide], the “effect on viremia or survival” value (YFV [1]) is listed as “no effect on viremia or survival was observed” and the “effect on viremia or survival” value (DENV type 1) is listed as “no effect on viremia or survival was observed”.

Work on ivermectin yielded an EC50 (Poliovirus 1 (Sb-1)) greater than 6000 nM, an EC50 [2] of roughly 1500 nM and an EC50 (YFV [3]) of 4.9 nM. The “concentration required to reduce the viability of VERO 76 monolayers by 50%” value [4] was 6 µM, the EC50 (Modoc (MODV) strain M544) was 730 nM and the EC50 [5] was greater than 6000 nM. For the same molecule, the EC50 (Vaccinia Virus (VV)) was greater than 6000 nM, the EC50 [6] was greater than 6000 nM and the EC50 (JEV strain SA-14 [7]) was 100 to 1000 nM. The EC50 [8] was 710 nM, the EC50 (Herpesvirus 1 (HSV-1)) was greater than 6000 nM and the “concentration required to reduce the viability of MDBK cells by 50%” value [9] was 11 µM. It also gave an EC50 (TBEV strain Oshima 5-10 [10]; read-out: EC50, TBEV, viral titer reduction assay) of 200 nM, an EC50 (TBEV strain Oshima 5-10 [10]; read-out: EC50, TBEV, viral titration on BHK21 cells) of 200 nM and an EC50 [11] greater than 6000 nM. For the same molecule, the EC50 (JEV strain SA-14 [12]; read-out: EC50, JEV, viral titer reduction assay) was 300 nM, the EC50 (JEV strain SA-14 [12]; read-out: EC50, JEV, viral titration on BHK21 cells) was 300 nM and the “concentration required to reduce the viability of BHK monolayers by 50%” value [13] was 1.5 µM. For the same molecule, the EC50 (TBEV strain Oshima 5-10 [14]) was 100 to 1000 nM, the “dose that can be safely employed” value [15] was “up to 10 times the highest FDA-approved dose of 200 μg/kg” and the “anti-DENV activity in replicon cells” value [16] was “possess anti-DENV activity”. For the same molecule, the EC50 (Reovirus-1 (Reo-1)) was greater than 1500 nM and the EC50 [17] was 7.4 nM and 10.3 nM.

— patent US8741856B2, “Avermectins and milbemycins for the treatment, prevention or amelioration of flavivirus infections” (priority 2009, dated 2014)
